From ChEMBL document CHEMBL1201862, “PubChem BioAssay data set” (2004)
Calls of active or inactive are those of the source.

What was measured:
Nonstructural protein 1 = Nonstructural protein 1 (Influenza A virus, UniProt Q194T2); assay type: functional, Influenza A virus (A/California/07/2009(H1N1))
[1] = biological target: T1, Rac GTPase-activating protein 1 (Homo sapiens, UniProt Q9H0H5); assay: blockers of MgcRacGAP-driven Rac1 GTP hydrolysis – biochemical, ADP Hunter fluorescence, primary and confirmatory, confirmation (AID 624330); assay type: functional
T1 sequence (Q9H0H5 whole entry): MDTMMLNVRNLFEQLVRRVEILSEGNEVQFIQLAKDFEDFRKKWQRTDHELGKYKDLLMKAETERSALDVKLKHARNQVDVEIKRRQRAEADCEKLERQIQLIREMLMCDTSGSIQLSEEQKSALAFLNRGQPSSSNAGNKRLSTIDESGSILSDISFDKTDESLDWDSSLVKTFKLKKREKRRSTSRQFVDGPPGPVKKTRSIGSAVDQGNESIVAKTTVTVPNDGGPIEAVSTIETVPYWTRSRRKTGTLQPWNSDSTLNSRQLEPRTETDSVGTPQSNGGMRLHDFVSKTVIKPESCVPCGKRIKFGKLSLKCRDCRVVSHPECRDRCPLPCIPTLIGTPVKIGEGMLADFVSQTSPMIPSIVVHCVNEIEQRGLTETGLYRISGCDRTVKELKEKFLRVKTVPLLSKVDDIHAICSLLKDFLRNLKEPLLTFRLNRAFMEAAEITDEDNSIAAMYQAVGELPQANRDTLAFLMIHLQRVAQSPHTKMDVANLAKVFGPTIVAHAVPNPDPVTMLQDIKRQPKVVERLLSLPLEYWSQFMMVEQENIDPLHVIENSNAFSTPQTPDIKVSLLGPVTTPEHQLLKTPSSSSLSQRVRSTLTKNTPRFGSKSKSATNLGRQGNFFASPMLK

Cytochrome P450 3A4 = Cytochrome P450 3A4 (Homo sapiens, UniProt P08684); settings: Potency;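 note: confirmatory qHTS run detecting inhibitors and substrates of CYP3A4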
[2] = biological target: Voltage-gated inwardly rectifying potassium channel KCNH2 (Homo sapiens, UniProt Q12809); settings: Potency;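 note: confirmatory quantitative high-throughput screen measuring inhibition of hERG channel activity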
[3] = biological target: T2, Carboxy-terminal domain RNA polymerase II polypeptide A small phosphatase 1 (Homo sapiens, UniProt Q9GZU7); assay: CTDSP1 inhibitors, concentration-response, biochemical, absorbance readout, ultra-high-throughput screen actives (AID 540297); assay type: functional
T2 sequence (Q9GZU7 whole entry): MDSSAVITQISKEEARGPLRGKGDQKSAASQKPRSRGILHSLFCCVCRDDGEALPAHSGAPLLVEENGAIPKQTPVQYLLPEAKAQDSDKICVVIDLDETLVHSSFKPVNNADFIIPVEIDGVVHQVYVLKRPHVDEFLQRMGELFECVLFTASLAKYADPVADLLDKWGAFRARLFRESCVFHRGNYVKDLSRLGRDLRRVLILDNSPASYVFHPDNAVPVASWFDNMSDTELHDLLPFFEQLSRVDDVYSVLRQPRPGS

[4] = biological target: 26S proteasome non-ATPase regulatory subunit 14 (Homo sapiens, UniProt O00487); assay: inhibition of proteasome subunit RPN11 – biochemical, fluorescence polarization, uHTS hits, confirmation (AID 602368); assay type: functional
[5] = biological target: 72 kDa type IV collagenase (Homo sapiens, UniProt P08253); assay: Dose Response validation of uHTS RPN11 inhibitor hits using a MMP-2 Fluorescence assay.; assay type: functional
Prothrombin = Prothrombin (Bos taurus, UniProt P00735); assay: thrombin protease inhibitors – biochemical, fluorescence polarization, uHTS hits, dose response (AID 602369); assay type: functional
[6] = biological target: T3, Low molecular weight phosphotyrosine protein phosphatase (Homo sapiens, UniProt P24666); assay type: functional; settings: read-out: IC50_Mean
T3 sequence (P24666 whole entry): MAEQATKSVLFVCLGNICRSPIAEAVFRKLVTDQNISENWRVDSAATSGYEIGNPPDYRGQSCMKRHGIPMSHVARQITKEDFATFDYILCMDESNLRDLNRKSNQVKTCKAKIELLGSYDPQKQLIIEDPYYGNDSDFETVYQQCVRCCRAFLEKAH

[7] = biological target: T3, Low molecular weight phosphotyrosine protein phosphatase; assay type: functional; settings: read-out: IC50_Mean; remark: listed apart in the source
[8] = biological target: T4, Probable nicotinate-nucleotide adenylyltransferase (Staphylococcus aureus (strain N315), UniProt P65502); assay type: functional, Staphylococcus aureus subsp. aureus N315;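 for IC50 Mean: confirmatory dose-response retesting of NadD inhibitor hits first found in an ultra-high-throughput screen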
[9] = biological target: T4, Probable nicotinate-nucleotide adenylyltransferase; assay type: functional, Staphylococcus aureus subsp. aureus N315; settings: read-out: IC50_Mean
[10] = biological target: Delta-type opioid receptor (Homo sapiens, UniProt P41143); assay: Counterscreen for agonists of heterodimerization of the mu 1 (OPRM1) and delta 1 (OPRD1) opioid receptors: Luminescence-based cell-based high throughput dose response assay to identify agonists of OPRD1 homodimerization. [Related pubchem assays (depositor defined):AID504326, AID504355, AID504692, AID504904, AID504905]; assay type: functional
Mu-type opioid receptor = Mu-type opioid receptor (Homo sapiens, UniProt P35372); assay: Counterscreen for agonists of heterodimerization of the mu 1 (OPRM1) and delta 1 (OPRD1) opioid receptors: Luminescence-based cell-based high throughput dose response assay to identify agonists of OPRM1 homodimerization.; assay type: functional;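 note: U2OS cells expressing OPRM1 and beta-arrestin as split beta-galactosidase partners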
[11] = biological target: 5-hydroxytryptamine receptor 5A (Homo sapiens, UniProt P47898); assay: Counterscreen for agonists of OPRM1-OPRD1 heterodimerization: luminescence-based cell-based high throughput dose response assay to identify agonists of 5-hydroxytryptamine (serotonin) 5A receptor (HTR5A). [Related pubchem assays (depositor defined):AID504326, AID504355, AID504692, AID504904, AID504905]; assay type: functional
Chain of 5-hydroxytryptamine receptor 5A (P47898 whole entry): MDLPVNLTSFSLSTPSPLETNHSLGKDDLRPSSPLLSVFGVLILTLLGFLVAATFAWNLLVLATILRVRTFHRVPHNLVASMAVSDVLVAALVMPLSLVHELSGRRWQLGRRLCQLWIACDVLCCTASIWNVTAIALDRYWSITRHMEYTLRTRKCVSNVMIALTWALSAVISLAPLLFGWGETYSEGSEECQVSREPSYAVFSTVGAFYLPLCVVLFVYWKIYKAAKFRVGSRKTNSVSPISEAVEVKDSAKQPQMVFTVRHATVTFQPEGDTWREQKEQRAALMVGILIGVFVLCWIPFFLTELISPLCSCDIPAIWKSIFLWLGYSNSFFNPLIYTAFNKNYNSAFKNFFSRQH

Chain of Voltage-gated inwardly rectifying potassium channel KCNH2 (Q12809 whole entry, the tested form may be a part): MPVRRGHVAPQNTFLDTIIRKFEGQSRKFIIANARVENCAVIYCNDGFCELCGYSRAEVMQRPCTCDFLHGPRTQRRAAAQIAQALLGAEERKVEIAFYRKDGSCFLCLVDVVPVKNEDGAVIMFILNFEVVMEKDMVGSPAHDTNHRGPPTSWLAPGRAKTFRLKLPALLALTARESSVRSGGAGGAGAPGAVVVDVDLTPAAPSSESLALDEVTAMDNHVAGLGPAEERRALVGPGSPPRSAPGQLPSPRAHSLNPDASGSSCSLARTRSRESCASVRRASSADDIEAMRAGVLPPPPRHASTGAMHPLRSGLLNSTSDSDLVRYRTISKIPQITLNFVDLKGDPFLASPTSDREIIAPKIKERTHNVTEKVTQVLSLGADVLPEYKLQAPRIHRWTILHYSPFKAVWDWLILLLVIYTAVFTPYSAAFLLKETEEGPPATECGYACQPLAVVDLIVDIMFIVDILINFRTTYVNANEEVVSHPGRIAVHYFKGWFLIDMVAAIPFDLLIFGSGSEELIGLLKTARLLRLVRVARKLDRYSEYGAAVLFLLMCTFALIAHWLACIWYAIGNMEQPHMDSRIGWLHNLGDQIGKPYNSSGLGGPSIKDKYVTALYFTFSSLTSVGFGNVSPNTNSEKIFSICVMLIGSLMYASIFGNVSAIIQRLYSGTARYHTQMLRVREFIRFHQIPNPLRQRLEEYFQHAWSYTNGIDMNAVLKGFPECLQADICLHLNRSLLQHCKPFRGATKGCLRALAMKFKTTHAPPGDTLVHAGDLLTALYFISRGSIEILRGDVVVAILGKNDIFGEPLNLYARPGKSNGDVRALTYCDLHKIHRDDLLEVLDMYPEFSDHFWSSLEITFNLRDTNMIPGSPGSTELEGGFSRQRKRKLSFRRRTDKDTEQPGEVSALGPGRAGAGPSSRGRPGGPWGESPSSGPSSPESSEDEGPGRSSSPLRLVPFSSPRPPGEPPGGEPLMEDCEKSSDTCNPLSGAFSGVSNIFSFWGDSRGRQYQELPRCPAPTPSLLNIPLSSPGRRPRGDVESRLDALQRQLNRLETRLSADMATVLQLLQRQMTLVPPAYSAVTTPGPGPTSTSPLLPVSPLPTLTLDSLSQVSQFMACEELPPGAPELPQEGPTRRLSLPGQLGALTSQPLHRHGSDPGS
T4 sequence (P65502 whole entry): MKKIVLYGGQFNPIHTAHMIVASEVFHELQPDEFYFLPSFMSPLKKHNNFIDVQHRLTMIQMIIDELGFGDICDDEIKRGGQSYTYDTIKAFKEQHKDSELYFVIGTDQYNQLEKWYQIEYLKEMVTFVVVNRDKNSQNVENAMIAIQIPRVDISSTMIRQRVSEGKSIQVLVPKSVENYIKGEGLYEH
Chain of 26S proteasome non-ATPase regulatory subunit 14 (O00487 whole entry): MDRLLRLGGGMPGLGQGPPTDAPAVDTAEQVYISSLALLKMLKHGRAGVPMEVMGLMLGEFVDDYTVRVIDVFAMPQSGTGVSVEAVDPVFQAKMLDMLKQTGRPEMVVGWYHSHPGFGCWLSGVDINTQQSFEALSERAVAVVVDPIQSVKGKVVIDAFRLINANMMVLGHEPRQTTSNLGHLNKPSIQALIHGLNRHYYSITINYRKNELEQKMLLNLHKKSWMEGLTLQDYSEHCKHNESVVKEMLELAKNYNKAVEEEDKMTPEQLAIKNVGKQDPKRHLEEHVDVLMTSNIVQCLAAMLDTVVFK
Chain of Cytochrome P450 3A4 (P08684 whole entry): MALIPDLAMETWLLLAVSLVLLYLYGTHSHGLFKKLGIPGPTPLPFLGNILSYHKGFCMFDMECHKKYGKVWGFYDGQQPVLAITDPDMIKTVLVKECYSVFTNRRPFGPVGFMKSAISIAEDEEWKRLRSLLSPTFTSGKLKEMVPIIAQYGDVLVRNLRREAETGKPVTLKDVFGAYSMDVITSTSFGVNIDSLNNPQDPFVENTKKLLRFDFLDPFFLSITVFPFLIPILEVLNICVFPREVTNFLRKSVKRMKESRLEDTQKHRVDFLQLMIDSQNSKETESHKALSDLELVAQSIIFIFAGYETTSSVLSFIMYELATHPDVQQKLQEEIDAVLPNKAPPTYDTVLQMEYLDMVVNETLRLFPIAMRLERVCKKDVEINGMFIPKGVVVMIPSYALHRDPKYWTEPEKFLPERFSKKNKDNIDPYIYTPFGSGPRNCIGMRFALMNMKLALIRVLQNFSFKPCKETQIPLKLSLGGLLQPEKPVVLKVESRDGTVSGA
Chain of Nonstructural protein 1 (Q194T2 whole entry): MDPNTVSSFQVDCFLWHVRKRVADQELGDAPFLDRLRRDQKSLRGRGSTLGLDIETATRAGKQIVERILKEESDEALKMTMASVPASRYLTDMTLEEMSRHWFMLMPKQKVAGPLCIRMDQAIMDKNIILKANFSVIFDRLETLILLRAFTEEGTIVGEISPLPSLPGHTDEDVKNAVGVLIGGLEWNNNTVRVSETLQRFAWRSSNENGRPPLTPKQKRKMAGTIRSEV
Chain of Delta-type opioid receptor (P41143 whole entry): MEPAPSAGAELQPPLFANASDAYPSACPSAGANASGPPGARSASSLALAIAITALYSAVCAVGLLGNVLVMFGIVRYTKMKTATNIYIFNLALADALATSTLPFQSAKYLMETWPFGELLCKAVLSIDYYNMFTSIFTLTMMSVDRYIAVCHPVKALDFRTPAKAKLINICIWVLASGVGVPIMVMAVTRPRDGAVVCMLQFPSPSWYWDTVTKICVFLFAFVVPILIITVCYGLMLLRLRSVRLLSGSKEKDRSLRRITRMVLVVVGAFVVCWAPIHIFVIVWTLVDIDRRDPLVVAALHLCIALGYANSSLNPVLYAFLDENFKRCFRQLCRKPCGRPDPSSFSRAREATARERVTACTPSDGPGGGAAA
Chain of 72 kDa type IV collagenase (P08253 whole entry): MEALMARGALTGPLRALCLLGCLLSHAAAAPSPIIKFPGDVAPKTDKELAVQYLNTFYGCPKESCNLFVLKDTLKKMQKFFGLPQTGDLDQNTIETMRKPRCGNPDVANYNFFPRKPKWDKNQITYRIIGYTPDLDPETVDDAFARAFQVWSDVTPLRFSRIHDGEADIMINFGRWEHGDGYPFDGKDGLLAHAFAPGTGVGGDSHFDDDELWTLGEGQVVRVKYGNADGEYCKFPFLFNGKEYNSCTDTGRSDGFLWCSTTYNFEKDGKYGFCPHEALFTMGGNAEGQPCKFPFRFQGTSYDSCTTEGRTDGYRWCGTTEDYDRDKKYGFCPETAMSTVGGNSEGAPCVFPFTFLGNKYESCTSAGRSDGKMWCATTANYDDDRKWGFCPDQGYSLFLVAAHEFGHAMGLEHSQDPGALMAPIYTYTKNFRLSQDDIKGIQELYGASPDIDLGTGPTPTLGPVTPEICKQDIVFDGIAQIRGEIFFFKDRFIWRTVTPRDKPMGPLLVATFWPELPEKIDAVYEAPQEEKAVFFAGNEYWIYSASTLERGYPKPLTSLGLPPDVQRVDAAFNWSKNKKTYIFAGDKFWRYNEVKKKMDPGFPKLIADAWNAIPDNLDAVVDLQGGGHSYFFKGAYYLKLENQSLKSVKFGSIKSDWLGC
Chain of Mu-type opioid receptor (P35372 whole entry): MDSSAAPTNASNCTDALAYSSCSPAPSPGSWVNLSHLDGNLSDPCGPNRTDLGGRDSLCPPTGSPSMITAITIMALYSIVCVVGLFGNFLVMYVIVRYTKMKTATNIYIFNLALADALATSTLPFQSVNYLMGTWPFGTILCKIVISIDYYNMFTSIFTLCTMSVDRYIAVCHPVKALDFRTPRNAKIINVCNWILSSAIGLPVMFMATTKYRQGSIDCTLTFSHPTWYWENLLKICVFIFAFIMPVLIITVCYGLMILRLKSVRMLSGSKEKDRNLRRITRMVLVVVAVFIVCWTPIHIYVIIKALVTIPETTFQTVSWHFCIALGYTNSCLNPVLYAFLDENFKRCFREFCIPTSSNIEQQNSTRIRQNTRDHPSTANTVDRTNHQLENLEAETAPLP

With `CN(C)c1ccc(Cc2ccc(N(C)C)cc2)cc1` the IC50 (Nonstructural protein 1) was 36.6 µM (active), the IC50 [1] was 73.2 µM (active) and the AC50 (Cytochrome P450 3A4) was 12.6 µM (inconclusive). For the same molecule, the AC50 [2] was 70.8 µM (inconclusive).
With `O=c1c(Cl)c(N/N=C/c2ccc(Br)cc2)cnn1-c1ccccc1` the IC50 [3] was > 80 µM (inactive), the IC50 [4] was 21.2 µM (active) and the IC50 [5] was > 100 µM (inactive). For the same molecule, the IC50 (Prothrombin) was > 100 µM (inactive), the IC50 [6] was > 80 µM (inactive) and the IC50 [7] was 21.6 µM (inactive).
For `COc1ccccc1-n1c(SCc2cc(=O)oc3cc(O)ccc23)nc2ccccc2c1=O`, the IC50 [8] was 15.2 µM (active) and the IC50 [9] was 40.2 µM (active).
`CN(C(=O)Cc1ccc(Cl)c(Cl)c1)C(CN1CCCC1)c1cccc(OCC(=O)O)c1` (stereo unspecified) was tested, and the EC50 [10] was 17.2 µM (inactive), the EC50 (Mu-type opioid receptor) was > 92.5 µM (inactive) and the EC50 [11] was > 92.5 µM (inactive). The AC50 [2] was 35.5 µM (inconclusive).
